Source: a compilation of properties of binary mixtures (doi:10.1039/c2cc30374d)

Assay: xn = mol fraction of the nth substance listed
Conditions: 101 kPa

[N-]=C=S.[NH4+] + CCOS(=O)(=O)[O-].CC[n+]1ccn(C)c1
Conditions | electrical conductivity [S/m] | viscosity [mPa·s]
298.15 K, x1 = 0.1553 | 0.319 | 150
298.15 K, x1 = 0.4042 | 0.279 | 231.1
298.15 K, x1 = 0.5205 | 0.281 | 224
298.15 K, x1 = 0.565 | 0.295 | 215.9
298.15 K, x1 = 0.5997 | 0.301 | 208.9
303.15 K, x1 = 0.0235 | 0.461 | 81.3
303.15 K, x1 = 0.1553 | 0.398 | 118
303.15 K, x1 = 0.3025 | 0.358 | 163.3
303.15 K, x1 = 0.4042 | 0.353 | 178.7
303.15 K, x1 = 0.5205 | 0.358 | 173.4
303.15 K, x1 = 0.5997 | 0.385 | 168.2
308.15 K, x1 = 0.0235 | 0.56 | 65.16
308.15 K, x1 = 0.1553 | 0.486 | 94.3
308.15 K, x1 = 0.5205 | 0.446 | 135.3
308.15 K, x1 = 0.565 | 0.468 | 133.9
308.15 K, x1 = 0.5997 | 0.481 | 133.7
313.15 K, x1 = 0.0235 | 0.67 | 53.09
313.15 K, x1 = 0.1553 | 0.584 | 76.57
313.15 K, x1 = 0.3025 | 0.531 | 104.6
313.15 K, x1 = 0.4042 | 0.526 | 112.9
313.15 K, x1 = 0.5205 | 0.546 | 107.5
313.15 K, x1 = 0.565 | 0.573 | 106
318.15 K, x1 = 0.0235 | 0.846 | 43.86
318.15 K, x1 = 0.1553 | 0.739 | 63.03
318.15 K, x1 = 0.3025 | 0.633 | 85.6
318.15 K, x1 = 0.4042 | 0.633 | 91.8
318.15 K, x1 = 0.5997 | 0.751 | 84.6
323.15 K, x1 = 0.0235 | 0.99 | 36.68
323.15 K, x1 = 0.1553 | 0.867 | 52.56
323.15 K, x1 = 0.3025 | 0.795 | 70.9
323.15 K, x1 = 0.4042 | 0.795 | 75.6
323.15 K, x1 = 0.5205 | 0.831 | 71.22
323.15 K, x1 = 0.5997 | 0.896 | 68.92
328.15 K, x1 = 0.0235 | – | 31.04
328.15 K, x1 = 0.1553 | – | 44.26
328.15 K, x1 = 0.3025 | – | 59.41
328.15 K, x1 = 0.4042 | – | 63.04
328.15 K, x1 = 0.5205 | – | 59.16
328.15 K, x1 = 0.565 | – | 57.79
328.15 K, x1 = 0.5997 | – | 56.96
333.15 K, x1 = 0.1553 | – | 37.68
333.15 K, x1 = 0.5205 | – | 49.72
333.15 K, x1 = 0.565 | – | 48.47

CC(=O)[O-].CC[n+]1ccn(C)c1 + [N-]=C=S.[NH4+]
x2 = 0
Conditions | electrical conductivity [S/m] | viscosity [mPa·s]
298.15 K | 0.295 | 128.4
303.15 K | 0.383 | 95.1
308.15 K | 0.483 | 72.4
318.15 K | 0.819 | 44.8
323.15 K | 0.984 | 36.27
328.15 K | – | 29.81
333.15 K | – | 24.86
